“Also recorded” adds a separate entry of the source.
What was measured:
canine atopic dermatitis [1] = assay: CADLI index (skin lesion score) in dogs with atopic dermatitis before and after drug administration; format: in vivo, dog; conditions: for effect of improving clinical symptoms of canine atopic dermatitis: 127 dogs, single agents 30 days each, combination up to 60 days, compared with before administration; for CADLI score, average value and standard error / CADLI score, average value (standard error): 30-days administration; for CADLI score, average value (standard error): all 127 dogs, oral with meals every 12 hours (RXM 5 mg/kg, PTX 25 mg/kg), prior to administration 33.17
Description: The CADLI index used in the present specification is an index representing the skin condition of atopic dermatitis, and the skin condition of the five parts of the body is scored by estimating erythema, scratch, erosion, alopecia, lichenification, hyperpigmentation (Non-Patent Document 14). Therefore, the highest point is 50 points, and closer to 50 points the skin inflammation is becoming more severe. […] This figure decreased to 12.04±1.11 after 30 days of dosing and 6.51±1.51 after 60 days, and it was remarkable for all 127 cases (100%). To be able to obtain remission of symptoms with high probability. […] Target animals: For five years from 2010 to 2015, at Gotofu Animal Hospital (1-1-3, […], Fukuoka City, Fukuoka Prefecture), among dogs diagnosed as atopic dermatitis of dogs by diagnostic criteria announced by Dr. Favrot in 2010 (non patent literature 15), the examinations were conducted for 127 dogs for which the consent and cooperation of treatment were obtained from the family and whose sum of SQK were larger than the sum of SLK of the 5 parts, whose SLK and SQK value were calculated for 5 parts of the neck, the fossa, the back, the forearm, and the lower leg. As content of implementation items, in all 127 cases, roxithromycin was administered as a single agent for 30 days, and pentoxifylline was administered as a single agent for the next 30 days. During the last 60 days, roxithromycin and pentoxifylline were administered in combination. The constituent of the targeted dog type is as shown in (Table 1). The constituent of the gender was 57 males (35 castrated with 35 male), 70 females (35 contraceptives already) (Table 1). Methods: In all 127 cases, 5 mg/kg of roxithromycin alone was orally administered with meals every 12 hours for the first 30 days. For the next 30 days, pentoxifylline alone was orally administered at 25 mg/kg with meals every 12 hours. For the next 60 days, 5 mg/kg of roxithromycin and 25 mg/kg of pentoxifylline were orally administered simultaneously with meals every 12 hours. After that, administration of roxithromycin and pentoxifylline was discontinued and a follow-up study was conducted for 30 days. For all treatment periods, meals were allowed to feed freely without restriction. Also, shampoo was carried out at home once a week. Local corticosteroid therapy was performed at any time as long as there was a strong itching lesion After measurement, roxithromycin (RXM) was administered as a single agent for 30 days. After administration, CADLI index was measured to ascertain the skin condition, and it was judged whether roxithromycin has the ability to improve atopic dermatitis by comparing the change of numerical values before and after medication. Similarly, for pentoxifylline (PTX), it was estimated whether pentoxifylline has the effect of improving canine atopic dermatitis by measuring the CADLI index as an index and comparing the values before and after administration. Finally, for administration of roxithromycin and pentoxifylline in combination, the CADLI index was measured on the 30th and 60th days of administration, respectively, and the effect of the drug was evaluated by comparing the values.

canine atopic dermatitis [2] = conditions: 7 out of 37 dogs with canine atopic dermatitis; cited from earlier work
[3] = breed West Highland white terrier

For `CC(=O)CCCCn1c(=O)c2c(ncn2C)n(C)c1=O` [PTX, Pentoxifylline], which “effect of improving clinical symptoms of canine atopic dermatitis” value (canine atopic dermatitis [1]) is on record?
Its value is “no therapeutic effect to improve atopic dermatitis in dogs; also recorded: unable to confirm the effect of improving the symptoms of atopic dermatitis in dogs”.

What about the “CADLI score, average value and standard error” value (canine atopic dermatitis [1]; age 4 years-6 years of age) of the same compound?
Its value is 32.38 ± 3.01.

What about the “CADLI score, average value and standard error” value (canine atopic dermatitis [1]; age 7 years-9 years of age) of the same compound?
The value was 32.95 ± 3.47.

What about the “CADLI score, average value and standard error” value (canine atopic dermatitis [1]; age 10 years-12 years of age) of the same compound?
Its value is 34.61 ± 2.84.

What about the “CADLI score, average value and standard error” value (canine atopic dermatitis [1]; age Over 13 years of age) of the same compound?
Its value is 31.68 ± 3.93.

What about the “CADLI score, average value and standard error” value (canine atopic dermatitis [1]; age Under 3 years of age) of the same compound?
The value was 33.94 ± 4.74.

And the “CADLI score, average value (standard error)” value (“CADLI score … (standard error)” below) (canine atopic dermatitis [1])?
Its value is 33.09.

What about the “CADLI score … (standard error)” value (canine atopic dermatitis [1]; listed as pentoxifylline) of the same compound?
The value was 33.09±1.52.

And the “CADLI score, average value and standard error” value (canine atopic dermatitis [1]; breed Chihuahua)?
Its value is 31.00 ± 9.01.

And the “CADLI score, average value and standard error” value (canine atopic dermatitis [1]; breed Miniature dachschund)?
Its value is 28.64 ± 4.11.

What about the “CADLI score, average value and standard error” value (canine atopic dermatitis [1]; breed Mongrel) of the same compound?
The value was 36.00 ± 6.08.

And the “CADLI score, average value and standard error” value (canine atopic dermatitis [1]; breed Others)?
Its value is 35.26 ± 3.66.

What about the “CADLI score, average value and standard error” value (canine atopic dermatitis [1]; breed Pug) of the same compound?
The value was 35.60 ± 3.48.

What about the “CADLI score, average value and standard error” value (canine atopic dermatitis [1]; breed Shiba) of the same compound?
Its value is 34.93 ± 4.45.

What about the “CADLI score, average value and standard error” value (canine atopic dermatitis [1]; breed Shih Tzu) of the same compound?
Its value is 32.94 ± 3.09.

And the “CADLI score, average value and standard error” value (canine atopic dermatitis [1]; breed Toy Poodle)?
Its value is 36.86 ± 5.42.

And the “CADLI score, average value and standard error” value (canine atopic dermatitis [1]; breed Welsh Corgi)?
Its value is 31.50 ± 6.11.

And the “CADLI score, average value and standard error” value (canine atopic dermatitis [1]; [3])?
Its value is 34.40 ± 7.91.

And the “CADLI score, average value and standard error” value (canine atopic dermatitis [1]; breed Yorkshire Terrier)?
The value was 22.29 ± 7.94.

And the “CADLI score, average value and standard error” value (canine atopic dermatitis [1]; sex Castrated male)?
The value was 32.63 ± 2.87.

And the “CADLI score, average value and standard error” value (canine atopic dermatitis [1]; sex Female)?
Its value is 32.43 ± 3.13.

What about the “CADLI score, average value and standard error” value (canine atopic dermatitis [1]; sex Male) of the same compound?
The value was 35.41 ± 3.40.

And the “CADLI score, average value and standard error” value (canine atopic dermatitis [1]; sex Spayed female)?
Its value is 32.74 ± 2.98.

And the “patients in which single administration of pentoxifylline was effective” value (canine atopic dermatitis [2])?
The value was 19%.

Which “effect of improving clinical symptoms of canine atopic dermatitis” value (canine atopic dermatitis [1]) does the source give for `CC[C@H]1OC(=O)[C@H](C)[C@@H](O[C@H]2C[C@@](C)(OC)[C@@H](O)[C@H](C)O2)[C@H](C)[C@@H](O[C@@H]2O[C@H](C)C[C@H](N(C)C)[C@H]2O)[C@](C)(O)C[C@@H](C)/C(=N\OCOCCOC)[C@H](C)[C@@H](O)[C@]1(C)O` [RXM, Roxithromycin] here?
Its value is “did not seem to have sufficient therapeutic effect to improve atopic dermatitis in dogs; also recorded: no effect of improving canine atopic dermatitis”.

And the “CADLI score, average value and standard error” value (canine atopic dermatitis [1]; age 4 years-6 years of age)?
Its value is 32.75 ± 2.82.

And the “CADLI score, average value and standard error” value (canine atopic dermatitis [1]; age 7 years-9 years of age)?
The value was 33.55 ± 3.54.

And the “CADLI score, average value and standard error” value (canine atopic dermatitis [1]; age 10 years-12 years of age)?
The value was 35.18 ± 2.89.

What about the “CADLI score, average value and standard error” value (canine atopic dermatitis [1]; age Over 13 years of age) of the same compound?
Its value is 32.32 ± 4.07.

And the “CADLI score, average value and standard error” value (canine atopic dermatitis [1]; age Under 3 years of age)?
The value was 34.72 ± 4.91.

And the “CADLI score … (standard error)” value (canine atopic dermatitis [1])?
The value was 33.64.

And the “CADLI score … (standard error)” value (canine atopic dermatitis [1]; listed as roxithromycin)?
The value was 33.64±1.51.

And the “CADLI score, average value and standard error” value (canine atopic dermatitis [1]; breed Chihuahua)?
The value was 31.67 ± 9.18.

And the “CADLI score, average value and standard error” value (canine atopic dermatitis [1]; breed Miniature dachschund)?
Its value is 29.00 ± 4.24.

What about the “CADLI score, average value and standard error” value (canine atopic dermatitis [1]; breed Mongrel) of the same compound?
Its value is 36.57 ± 6.25.

What about the “CADLI score, average value and standard error” value (canine atopic dermatitis [1]; breed Others) of the same compound?
Its value is 36.16 ± 3.50.

And the “CADLI score, average value and standard error” value (canine atopic dermatitis [1]; breed Pug)?
The value was 35.30 ± 3.63.

And the “CADLI score, average value and standard error” value (canine atopic dermatitis [1]; breed Shiba)?
Its value is 35.60 ± 4.44.

What about the “CADLI score, average value and standard error” value (canine atopic dermatitis [1]; breed Shih Tzu) of the same compound?
The value was 33.39 ± 2.88.

What about the “CADLI score, average value and standard error” value (canine atopic dermatitis [1]; breed Toy Poodle) of the same compound?
The value was 37.57 ± 5.51.

And the “CADLI score, average value and standard error” value (canine atopic dermatitis [1]; breed Welsh Corgi)?
Its value is 31.50 ± 6.98.

And the “CADLI score, average value and standard error” value (canine atopic dermatitis [1]; [3])?
Its value is 35.00 ± 8.08.

What about the “CADLI score, average value and standard error” value (canine atopic dermatitis [1]; breed Yorkshire Terrier) of the same compound?
Its value is 23.00 ± 8.56.

And the “CADLI score, average value and standard error” value (canine atopic dermatitis [1]; sex Castrated male)?
The value was 33.23 ± 2.97.

What about the “CADLI score, average value and standard error” value (canine atopic dermatitis [1]; sex Female) of the same compound?
The value was 32.71 ± 2.96.

What about the “CADLI score, average value and standard error” value (canine atopic dermatitis [1]; sex Male) of the same compound?
The value was 36.41 ± 3.28.

What about the “CADLI score, average value and standard error” value (canine atopic dermatitis [1]; sex Spayed female) of the same compound?
The value was 33.23 ± 3.01.
